For one assay, the system named is hIL-6 mRNA. Description: Inhibition of hIL-6 mRNA transcription in LPS-stimulated U937 macrophages. The following applies: Homo sapiens, U-937, PMA-differentiated U937 cells, 1 h pretreatment, LPS 3 h, read-out: IL-6 activity. It counts as cell-based, Human. In a few lines:
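PMA-differentiated U937 macrophages (60 ng/mL PMA, 3 days) pretreated 1 h with compound in 0.1% DMSO, then stimulated with 1 ug/mL E. coli LPS for 3 h at 37° C. IL-6 mRNA quantified by one-step TaqMan qRT-PCR, normalized to cyclophilin; fold expression relative to control, triplicate wells.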

For assay [1], the target named is Brd4 bromodomain 1 (BRD4(1)) (Homo sapiens, UniProt O60885). Description: Inhibition of tetra-acetylated histone H4 binding to Brd4 bromodomain 1, measured by FRET (HTRF). Set-up: made in house; host or cells: E. coli BL21(DE3). To be noted: 2 h at room temperature. In a few lines: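 N-terminally His-tagged bromodomain (200 nM), expressed in E. coli and purified by Ni affinity and size exclusion, was incubated with biotinylated tetra-acetylated H4 peptide (25-50 nM), Eu-cryptate streptavidin and XL665 anti-His in HEPES pH 7.4 buffer with 0.2% DMSO. Reactions ran 2 h at room temperature. IC50 came from the 665/620 nm fluorescence decrease.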
In general terms: Time-resolved FRET reads energy transfer from a long-lived donor to a nearby acceptor.

For another assay, the system named is Human AML MV-4-11 cells. The assay is described as follows: Inhibition of cell proliferation in MV4-11 cells (CellTiter Aqueous One). The following applies: MV4-11, 72 h. It counts as cell-based. In a few lines:
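MV4-11 cells, 5×10^4 per well in IMDM with 10% FBS, were exposed to increasing compound concentrations or 0.1% DMSO for 72 h at 37 °C in triplicate. Viability was read by MTS (CellTiter Aqueous One) absorbance at 490 nm after 3-4 h. IC50 was derived from background-corrected signal relative to DMSO.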

The subject of assay [2] is c-myc in Human AML MV4-11 cells. Description: Inhibition of cMYC expression (mRNA, real-time PCR) in MV4-11 cells. The assay is classed as cell-based. To be noted: 3 h treatment, cMYC mRNA by real-time PCR. In a few lines:
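MV4-11 cells in IMDM with 10% FBS were treated with increasing compound concentrations (DMSO 0.1%) for 3 h at 37 °C, in triplicate. Isolated mRNA was quantified by one-step TaqMan RT-qPCR, cMYC Ct normalized to cyclophilin, and fold expression given relative to DMSO control.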
(In general: Quantitative PCR measures a nucleic acid by following its amplification.)

As for `Cc1noc(C)c1-c1cc(-c2cccc(C#N)c2C)c2nc(N3CCC(N)CC3)[nH]c2c1` [Example Compound 209, 3-(2-(4-amino-piperidin-1-yl)-6-(3,5-dimethyl-isoxazol-4-yl)-1H-benzo[d]imidazol-4-yl)-2-methyl benzonitrile], the IC50 is 300 to 3000 nM in the assay on hIL-6 mRNA, not above 300 nM in assay [1], not above 300 nM with Human AML MV-4-11 cells and 300 to 3000 nM in assay [2].
For `Cc1nc2c(-c3cnccn3)cc(-c3c(C)noc3C)cc2[nH]1` [Example Compound 85, 3,5-dimethyl-4-(2-methyl-4-(pyrazin-2-yl)-1H-benzo[d]imidazol-6-yl)isoxazole], the IC50 in the assay on hIL-6 mRNA was 300 to 3000 nM; in assay [1], not above 300 nM; in the assay on Human AML MV-4-11 cells, 3000 to 30000 nM; in assay [2] it was 3000 to 30000 nM.
Turning to `COc1ncccc1-c1cc(-c2c(C)noc2C)cc2[nH]c(C)nc12` [Example Compound 118, 4-(4-(2-methoxy-pyridin-3-yl)-2-methyl-1H-benzo[d]imidazol-6-yl)-3,5-dimethyl isoxazole], the IC50 was 300 to 3000 nM in the assay on hIL-6 mRNA, not above 300 nM in assay [1], 300 to 3000 nM in the assay on Human AML MV-4-11 cells and 300 to 3000 nM in assay [2].
As to `Cc1nc2c(N3CCOCC3)cc(-c3c(C)noc3C)cc2[nH]1` [Example Compound 173, 4-(6-(3,5-dimethyl-isoxazol-4-yl)-2-methyl-1H-benzo[d]imidazol-4-yl) morpholine], the IC50 in the assay on hIL-6 mRNA was 300 to 3000 nM; in assay [1] it was not above 300 nM; with Human AML MV-4-11 cells it was 300 to 3000 nM; in assay [2], 300 to 3000 nM.
As to `CNc1nc2c(-c3cnccc3C)cc(-c3c(C)noc3C)cc2[nH]1` [Example Compound 214, 6-(3,5-dimethyl-isoxazol-4-yl)-N-methyl-4-(4-methylpyridin-3-yl)-1H-benzo[d] imidazol-2-amine], the IC50 is 300 to 3000 nM in the assay on hIL-6 mRNA, not above 300 nM in assay [1], not above 300 nM in the assay with Human AML MV-4-11 cells and not above 300 nM in assay [2].
`Cc1nc2c(-c3cccc4ccccc34)cc(-c3c(C)noc3C)cc2[nH]1` [Example Compound 138, 3,5-dimethyl-4-(2-methyl-4-(naphthalen-1-yl)-1H-benzo[d]imidazol-6-yl)isoxazole]: the IC50 in the assay with hIL-6 mRNA is not above 300 nM; in assay [1], not above 300 nM; in the assay with Human AML MV-4-11 cells, 300 to 3000 nM; in assay [2] it was 300 to 3000 nM.
On to `Cc1nc2c(Nc3cccnc3C)cc(-c3c(C)noc3C)cc2[nH]1` [Example Compound 143, 6-(3,5-dimethylisoxazol-4-yl)-2-methyl-N-(2-methylpyridin-3-yl)-1H-benzo[d]imidazol-4-amine], for which the IC50 is 300 to 3000 nM in the assay on hIL-6 mRNA, not above 300 nM in assay [1], 300 to 3000 nM in the assay on Human AML MV-4-11 cells and 300 to 3000 nM in assay [2].
Turning to `Cc1nc2c(-c3ccccc3)cc(-c3c(C)noc3C)cc2[nH]1` [Example Compound 88, 3,5-dimethyl-4-(2-methyl-4-phenyl-1H-benzo[d]imidazol 6-yl)isoxazole], the IC50 with hIL-6 mRNA is 300 to 3000 nM; in assay [1], not above 300 nM; in the assay on Human AML MV-4-11 cells, 300 to 3000 nM; in assay [2], 300 to 3000 nM.
`Cc1ccc(C#N)cc1-c1cc(-c2c(C)noc2C)cc2[nH]c(NCc3ccccc3)nc12` [Example Compound 210, 3-(2-(benzylamino)-6-(3,5-dimethyl-isoxazol-4-yl)-1H-benzo[d]imidazol-4-yl)-4-methyl benzonitrile]: the IC50 with hIL-6 mRNA was 300 to 3000 nM; in assay [1], not above 300 nM; in the assay on Human AML MV-4-11 cells it was not above 300 nM; in assay [2], 300 to 3000 nM.
For the molecule `Cc1nc2c(-c3ccc4ocnc4c3)cc(-c3c(C)noc3C)cc2[nH]1` [Example Compound 136, 5-(6-(3,5-dimethyl-isoxazol-4-yl)-2-methyl-1H-benzo[d]imidazol-4-yl)benzo[d] oxazole], the IC50 is 300 to 3000 nM in the assay with hIL-6 mRNA, not above 300 nM in assay [1], 300 to 3000 nM in the assay on Human AML MV-4-11 cells and not above 300 nM in assay [2].
For the molecule `Cc1noc(C)c1-c1cc(-c2c(C)noc2C)c2[nH]c(CC(F)(F)F)nc2c1` [Example Compound 76, 4,4′-(2-(2,2,2-trifluoro-ethyl)-1H-benzo[d]imidazole-5,7-diyl)bis(3,5-dimethylisoxazole)], the IC50 in the assay on hIL-6 mRNA was 300 to 3000 nM; in assay [1] it was not above 300 nM; in the assay with Human AML MV-4-11 cells, 300 to 3000 nM; in assay [2], 300 to 3000 nM.
Regarding `Cc1noc(C)c1-c1cc(-c2cc(N)c(=O)n(C)c2)c2nc[nH]c2c1` [Example Compound 225, 3-amino-5-(6-(3,5-dimethylisoxazol-4-yl)-1H-benzo[d]imidazol-4-yl)-1-methyl-pyridin-2(1H)-one], the IC50 lay in the range of 3000 to 30000 nM in the assay on hIL-6 mRNA, 300 to 3000 nM in assay [1], 3000 to 30000 nM in the assay on Human AML MV-4-11 cells and 300 to 3000 nM in assay [2].
Consider `COc1nc(C)ccc1-c1cc(-c2c(C)noc2C)cc2[nH]c(C)nc12` [Example Compound 135, 4-(4-(2-methoxy-6-methyl-pyridin-3-yl)-2-methyl-1H-benzo[d]imidazol-6-yl)-3,5-dimethyl isoxazole], for which the IC50 is 300 to 3000 nM with hIL-6 mRNA, not above 300 nM in assay [1], 300 to 3000 nM in the assay on Human AML MV-4-11 cells and not above 300 nM in assay [2].
Turning to `COc1ncc(F)cc1-c1cc(-c2c(C)noc2C)cc2[nH]c(C)nc12` [Example Compound 131, 4-(4-(5-fluoro-2-methoxy-pyridin-3-yl)-2-methyl-1H-benzo[d]imidazol-6-yl)-3,5-dimethyl isoxazole], the IC50 (with hIL-6 mRNA; in assay [1]; in the assay on Human AML MV-4-11 cells; in assay [2]) was 300 to 3000 nM in each case.
As for `Cc1nc2c(CCc3ccccc3)cc(-c3c(C)noc3C)cc2[nH]1` [Example Compound 161, 3,5-dimethyl-4-(2-methyl-4-phenethyl-1H-benzo[d]imidazol-6-yl)isoxazole], the IC50 with hIL-6 mRNA was 300 to 3000 nM; in assay [1], not above 300 nM; in the assay on Human AML MV-4-11 cells, 3000 to 30000 nM; in assay [2] it was 300 to 3000 nM.
With `COc1ccc(F)c(-c2cc(-c3c(C)noc3C)cc3[nH]c(C)nc23)c1` [Example Compound 108, 4-(4-(2-fluoro-5-methoxy-phenyl)-2-methyl-1H-benzo[d]imidazol-6-yl)-3,5-dimethyl isoxazole], the IC50 was 300 to 3000 nM in the assay on hIL-6 mRNA, not above 300 nM in assay [1], 300 to 3000 nM in the assay with Human AML MV-4-11 cells and 300 to 3000 nM in assay [2].
In the case of `Cc1noc(C)c1-c1cc(-c2cnccc2C(F)(F)F)c2[nH]ncc2c1` [Example Compound 129, 3,5-dimethyl-4-(7-(4-(trifluoromethyl)pyridin-3-yl)-1H-indazol-5-yl)isoxazole], the IC50 (in the assay on hIL-6 mRNA; in assay [1]; with Human AML MV-4-11 cells; in assay [2]) was 300 to 3000 nM each time.
Regarding `Cc1noc(C)c1-c1cc(-c2cccc(C#N)c2)c2nc[nH]c2c1` [Example Compound 2, 3-(6-(3,5-dimethylisoxazol-4-yl)-1H-benzo[d]imidazol-4-yl) benzonitrile], the IC50 in the assay on hIL-6 mRNA is 300 to 3000 nM; in assay [1], not above 300 nM; with Human AML MV-4-11 cells, 300 to 3000 nM; in assay [2], 300 to 3000 nM.
Regarding `Cc1nc2c(-c3ccccc3F)cc(-c3c(C)noc3C)cc2[nH]1` [Example Compound 91, 4-(4-(2-fluoro-phenyl)-2-methyl-1H-benzo[d]imidazol-6-yl)-3,5-dimethyl isoxazole], the IC50 was not above 300 nM with hIL-6 mRNA, not above 300 nM in assay [1], 300 to 3000 nM with Human AML MV-4-11 cells and not above 300 nM in assay [2].
Regarding `Cc1noc(C)c1-c1cc(-c2cccnc2C(F)(F)F)c2[nH]ncc2c1` [Example Compound 128, 3,5-dimethyl-4-(7-(2-(trifluoromethyl)pyridin-3-yl)-1H-indazol-5-yl)isoxazole], the IC50 in the assay on hIL-6 mRNA is not above 300 nM; in assay [1], 300 to 3000 nM; with Human AML MV-4-11 cells, 300 to 3000 nM; in assay [2], 300 to 3000 nM.
Turning to `COc1ccncc1-c1cc(-c2c(C)noc2C)cc2[nH]c(C)nc12` [Example Compound 72, 4-(4-(4-methoxy-pyridin-3-yl)-2-methyl-1H-benzo[d]imidazol-6-yl)-3,5-dimethyl isoxazole], the IC50 was 300 to 3000 nM in the assay with hIL-6 mRNA, not above 300 nM in assay [1], 300 to 3000 nM with Human AML MV-4-11 cells and 300 to 3000 nM in assay [2].
Turning to `Cc1nc2c(-c3c(C)nc(N)nc3C)cc(-c3c(C)noc3C)cc2[nH]1` [Example Compound 99, 5-(6-(3,5-dimethyl-isoxazol-4-yl)-2-methyl-1H-benzo[d]imidazol-4-yl)-4,6-dimethyl pyrimidin-2-amine], the IC50 (with hIL-6 mRNA; in assay [1]; in the assay with Human AML MV-4-11 cells; in assay [2]) was not above 300 nM in each case.

Values taken from patent US9999616B2 (ZENITH EPIGENETICS LTD., priority 2013, dated 2018).
